From US20240067632A1, “WEE1 Degrading Compounds and Uses Thereof” (Bristol-Myers Squibb Company, priority 2022, published 2024)

Tests used:
WEE1 = molecular target: T1, WEE1 (Homo sapiens, UniProt P30291+Q96SW2); experiment: WEE1-ePL degradation assay (LentiX-WEE1-ePL-GSPT1-ND cells, InCELL Hunter luminescence, 4 h); assay type: cell-based; conditions: 293T-LentiX WEE1-ePL cells; for 293T-LentiX WEE1-ePL Degradation 4 hr (Ymin): lower limit of the fit (0 = luciferase inhibitor, Ymax = DMSO control); for DC50: read-out: 293T-LentiX WEE1-ePL Degradation 4 hr (EC50)
T1 construct: C-terminal ePL-tagged (DiscoverX, Fremont, CA) full-length WEE1 expression construct; expressed in transfected cells; host or cells: LentiX-HEK293T (Invitrogen), lentiviral transduction; co-expressing GSPT1-GN (G576N, lacking the first 158 amino acids)
How it was run: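 Degradation EC50 was fitted by a four-parameter logistic model, with the upper limit taken from DMSO wells. Luminescence was read with InCELL Hunter reagent after 30 min at room temperature, following a 4 h, 37° C exposure of 2500 cells/well. Cells were LentiX-HEK293T carrying ePL-tagged full-length WEE1, dosed in 10 points (3-fold) from 1 or 10 uM.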

MKN45 cells = experiment: MKN45 cell proliferation assay (Cell-Titer-Glo, 120 h); assay type: cell-based; conditions: for EC50: Homo sapiens, MKN-45, 120 h, Cell-Titer-Glo, growth inhibition, read-out: MKN45 Cell Prolif. 120 hr (EC50); for MKN45 Cell Prolif. 120 hr (Ymin-Obs): minimal percent of DMSO control observed in the concentrations tested
How it was run: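 Cells seeded at 400/well onto pre-printed 10-point half-log dilutions (top 1 or 10 uM, 0.1% DMSO final), in triplicate, and grown 120 h at 37 C. Viability by Cell-Titer-Glo luminescence, blank-subtracted and normalised to DMSO; EC50 from four-parameter logistic fit, with observed minimal % of control recorded as Ymin-obs.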

Compound	293T-LentiX WEE1-ePL Degradation 4 hr (Ymin) (WEE1)	DC50 (WEE1) [nM]	EC50 (MKN45 cells) [nM]	MKN45 Cell Prolif. 120 hr (Ymin-Obs) (MKN45 cells)
O=C1CCC(N2Cc3cc(O[C@H]4CCN(Cc5ccc6nc(C(F)(F)F)ncc6c5)C4)ccc3C2=O)C(=O)N1 (stereo partly drawn) [3-(1-oxo-5-{[(3S)-1-{[2-(trifluoromethyl)quinazolin-6-yl]methyl}pyrrolidin-3-yl]oxy}-2,3-dihydro-1H-isoindol-2-yl)piperidine-2,6-dione]	29.67	8.11	33.2	14.74
Cc1ccc2cc(CN3CC[C@H](Oc4ccc5c(c4)CN(C4CCC(=O)NC4=O)C5=O)C3)ccc2n1 (stereo partly drawn) [3-(5-{[(3S)-1-[(2-methylquinolin-6-yl)methyl]pyrrolidin-3-yl]oxy}-1-oxo-2,3-dihydro-1H-isoindol-2-yl)piperidine-2,6-dione]	30.3	3.81	22.3	13.85
O=C1CCC(N2Cc3cc(O[C@H]4CCN(Cc5ccnc6c5CCCO6)C4)ccc3C2=O)C(=O)N1 (stereo partly drawn) [3-(1-oxo-5-{[(3S)-1-({2H,3H,4H-pyrano[2,3-b]pyridin-5-yl}methyl)pyrrolidin-3-yl]oxy}-2,3-dihydro-1H-isoindol-2-yl)piperidine-2,6-dione]	44	38.9	489	27.04
O=C1CCC(N2Cc3cc(O[C@H]4CCN(Cc5ccc6cnncc6c5)C4)ccc3C2=O)C(=O)N1 (stereo partly drawn) [3-(1-oxo-5-{[(3S)-1-[(phthalazin-6-yl)methyl]pyrrolidin-3-yl]oxy}-2,3-dihydro-1H-isoindol-2-yl)piperidine-2,6-dione]	38	148	883	16.7
COCc1ncc2cc(CN3CC[C@H](Oc4ccc5c(c4)CN(C4CCC(=O)NC4=O)C5=O)C3)ccc2n1 (stereo partly drawn) [3-(5-{[(3S)-1-{[2-(methoxymethyl)quinazolin-6-yl]methyl}pyrrolidin-3-yl]oxy}-1-oxo-2,3-dihydro-1H-isoindol-2-yl)piperidine-2,6-dione]	32	47.5	78.5	9.73
Cc1ccc2cc(CN3CC[C@H](Oc4ccc5c(c4)CN(C4CCC(=O)NC4=O)C5=O)C3)cc(F)c2n1 (stereo partly drawn) [3-(5-{[(3S)-1-[(8-fluoro-2-methylquinolin-6-yl)methyl]pyrrolidin-3-yl]oxy}-1-oxo-2,3-dihydro-1H-isoindol-2-yl)piperidine-2,6-dione]	25.35	1.04	3.2	7.555
O=C1CC[C@H](N2Cc3cc(O[C@H]4CCN(Cc5ccc6nc([C@@H]7CCOC7)ncc6c5)C4)ccc3C2=O)C(=O)N1	33	18	13	9.409
[2H]c1ccc2cc(CN3CCC(Oc4ccc5c(c4)CN(C4CCC(=O)NC4=O)C5=O)C3)ccc2n1 [3-(1-oxo-5-{[(3S)-1-{[(2-^2H)quinolin-6-yl]methyl}pyrrolidin-3-yl]oxy}-2,3-dihydro-1H-isoindol-2-yl)piperidine-2,6-dione]	29.5	4.09	26.9	9.14
Cc1nc(N2CCOCC2)nc2ccc(CN3CC[C@H](Oc4ccc5c(c4)CN(C4CCC(=O)NC4=O)C5=O)C3)cc12 (stereo partly drawn) [3-(5-{[(3S)-1-{[4-methyl-2-(morpholin-4-yl)quinazolin-6-yl]methyl}pyrrolidin-3-yl]oxy}-1-oxo-2,3-dihydro-1H-isoindol-2-yl)piperidine-2,6-dione]	36	5.37	9.28	7.12
